# Measurements from ChEMBL document CHEMBL5500393, “Discovery and Optimization of Novel SaFabI Inhibitors as Specific Therapeutic Agents for MRSA Infection” (J Med Chem, 2024).
# Active and inactive are the calls of the source. The calls are words filed in the database; no cut-off is given here.
# Key:
# [1] = biological target: T1, Enoyl-[acyl-carrier-protein] reductase [NADPH] FabI (Staphylococcus aureus, UniProt Q6GI75); assay: Inhibition of N-terminal his 6 tagged Staphylococcus aureus Fabi (1 to […] residues) expressed in Escherichia coli BL21 incubated for 30 mins in presence of NADPH by fluorescence based microplate reader analysis
# T1 sequence (Q6GI75 whole entry): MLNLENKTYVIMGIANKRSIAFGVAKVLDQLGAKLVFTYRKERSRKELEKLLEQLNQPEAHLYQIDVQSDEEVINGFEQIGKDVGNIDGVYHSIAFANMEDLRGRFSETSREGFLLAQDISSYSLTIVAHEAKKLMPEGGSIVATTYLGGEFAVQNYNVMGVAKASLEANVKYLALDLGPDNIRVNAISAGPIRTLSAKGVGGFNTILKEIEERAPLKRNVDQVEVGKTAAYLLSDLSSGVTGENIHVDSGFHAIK
# [2] = tested on: Staphylococcus aureus; assay: Antimicrobial activity against methicillin-susceptible Staphylococcus aureus ATCC29213 measured after 24 hrs by CLSI protocol based microdilution method; assay type: functional
# [3] = AUC (0 to t) in female Sprague-Dawley rat at 5 mg/kg, iv measured upto 24 hrs by LC-MS analysis; assay type: ADME, organism-based; settings: in vivo
# [4] = Metabolic stability in human liver microsomes assessed as intrinsic clearance at 1 uM measured upto 120 mins in presence of NADPH by LC-MS analysis; assay type: ADME, Microsome; settings: read-out: CLH
# [5] = Half life in female Sprague-Dawley rat at 5 mg/kg, iv measured upto 24 hrs by LC-MS analysis; assay type: ADME, organism-based; settings: in vivo
# [6] = tested on: Staphylococcus aureus; assay: In vivo antibacterial activity against methicilin-resistant Staphylococcus aureus ATCC33591 infected in BALB/c mouse skin infection model assessed as normal skin structure at 5 mg/kg administered daily for 4 days by H and E staining based analysis; assay type: functional, organism-based; settings: time 4.0 day
# [7] = Half life in female Sprague-Dawley rat at 20 mg/kg, po measured upto 24 hrs by LC-MS analysis; assay type: ADME, organism-based; settings: in vivo
# [8] = Cmax in female Sprague-Dawley rat at 20 mg/kg, po measured upto 24 hrs by LC-MS analysis; assay type: ADME, organism-based; settings: in vivo
# [9] = tested on: Staphylococcus aureus; assay: Antimicrobial activity against […] Staphylococcus aureus USA300 measured after 24 hrs by CLSI protocol based microdilution method; assay type: functional
# [10] = tested on: Staphylococcus aureus; assay: Bactericidal activity against […] Staphylococcus aureus ATCC33591 assessed as log reduction in bacterial count measured within 24 hrs by time-kill assay; assay type: functional
# [11] = Metabolic stability in human liver microsomes assessed as half life at 1 uM measured upto 120 mins in presence of NADPH by LC-MS analysis; assay type: ADME, Microsome
# [12] = tested on: Staphylococcus aureus; assay: In vivo antibacterial activity against methicilin-resistant Staphylococcus aureus ATCC33591 infected in BALB/c mouse skin infection model assessed as normal morphology at 5 mg/kg administered daily for 4 days by H and E staining based analysis; assay type: functional, organism-based; settings: time 4.0 day
# [13] = tested on: Staphylococcus aureus; assay: In vivo antibacterial activity against methicilin-resistant Staphylococcus aureus ATCC33591 infected in BALB/c mouse skin infection model assessed as log reduction in bacterial count at 5 mg/kg administered daily for 4 days; assay type: functional; settings: time 4 day
# [14] = tested on: Staphylococcus aureus; assay: Antimicrobial activity against […] Staphylococcus aureus ATCC43300 measured after 24 hrs by CLSI protocol based microdilution method; assay type: functional
# [15] = tested on: Staphylococcus aureus; assay: In vivo antibacterial activity against methicilin-resistant Staphylococcus aureus ATCC33591 infected in BALB/c mouse skin infection model assessed as decrease in lesion size at 5 mg/kg administered daily for 4 days (reference value: 43.4 mm2); assay type: functional; settings: time 4 day
# [16] = tested on: Staphylococcus aureus; assay: Antimicrobial activity against Staphylococcus aureus RN4220 harbouring pCM-sfgfp::fabi (promoter fabi) measured after 24 hrs by CLSI protocol based microdilution method; assay type: functional
# [17] = tested on: Staphylococcus aureus; assay: Antimicrobial activity against wild type Staphylococcus aureus RN4220 measured after 24 hrs by CLSI protocol based microdilution method; assay type: functional
# [18] = tested on: Staphylococcus aureus; assay: Antimicrobial activity against Staphylococcus aureus RN4220 harbouring pCM-sfgfp measured after 24 hrs by CLSI protocol based microdilution method; assay type: functional
# [19] = Tmax in female Sprague-Dawley rat at 20 mg/kg, po measured upto 24 hrs by LC-MS analysis; assay type: ADME, organism-based; settings: in vivo
# [20] = tested on: Staphylococcus aureus; assay: Antimicrobial activity against methicillin-susceptible Staphylococcus aureus ATCC25923 measured after 24 hrs by CLSI protocol based microdilution method; assay type: functional
# [21] = tested on: Staphylococcus aureus; assay: In vivo antibacterial activity against methicilin-resistant Staphylococcus aureus ATCC33591 infected in BALB/c mouse skin infection model assessed as reduction in number of inflammatory cells at 5 mg/kg administered daily for 4 days by H and E staining based analysis; assay type: functional, organism-based; settings: time 4.0 day
# [22] = Metabolic stability in mouse liver microsomes assessed as half life at 1 uM measured upto 120 mins in presence of NADPH by LC-MS analysis; assay type: ADME, Microsome
# [23] = tested on: Staphylococcus aureus; assay: Antimicrobial activity against Staphylococcus aureus RN4220 harbouring pCM-sfgfp::fabi (promoter-sarA) measured after 24 hrs by CLSI protocol based microdilution method; assay type: functional
# [24] = tested on: Acinetobacter baumannii; assay: Antimicrobial activity against Acinetobacter baumannii ATCC19606 measured after 24 hrs by CLSI protocol based microdilution method; assay type: functional
# [25] = tested on: Staphylococcus aureus; assay: In vivo antibacterial activity against methicilin-resistant Staphylococcus aureus ATCC33591 infected in BALB/c mouse skin infection model assessed as restoration of cell morphology at 5 mg/kg administered daily for 4 days by H and E staining based analysis; assay type: functional, organism-based; settings: time 4.0 day
# [26] = Clearance in female Sprague-Dawley rat at 20 mg/kg, po measured upto 24 hrs by LC-MS analysis; assay type: ADME, organism-based; settings: in vivo
# [27] = tested on: Staphylococcus aureus; assay: Antimicrobial activity against […] Staphylococcus aureus ATCC33591 assessed as frequency of spontaneous resistance at 16 times MIC measured after 48 hrs by; assay type: functional
# [28] = tested on: Staphylococcus aureus; assay: Antimicrobial activity against […] Staphylococcus aureus ATCC33591 assessed as frequency of spontaneous resistance at 8 times MIC measured after 48 hrs by; assay type: functional
# [29] = Metabolic stability in mouse liver microsomes assessed as intrinsic clearance at 1 uM measured upto 120 mins in presence of NADPH by LC-MS analysis; assay type: ADME, Microsome; settings: read-out: CLH
# [30] = tested on: Staphylococcus aureus; assay: Antimicrobial activity against […] Staphylococcus aureus NRS271 measured after 24 hrs by CLSI protocol based microdilution method; assay type: functional
# [31] = tested on: Staphylococcus aureus; assay: Antimicrobial activity against […] Staphylococcus aureus ATCC33591 assessed as frequency of spontaneous resistance at 4 times MIC measured after 48 hrs by; assay type: functional
# [32] = tested on: Staphylococcus aureus; assay: Antimicrobial activity against […] Staphylococcus aureus ATCC33591 measured after 24 hrs by CLSI protocol based microdilution method; assay type: functional
# [33] = tested on: Escherichia coli; assay: Antimicrobial activity against Escherichia coli ATCC25922 measured after 24 hrs by CLSI protocol based microdilution method; assay type: functional
# [34] = tested on: Staphylococcus aureus; assay: In vivo antibacterial activity against methicilin-resistant Staphylococcus aureus ATCC33591 infected in BALB/c mouse skin infection model assessed as reduction in skin lesions at 5 mg/kg administered daily for 4 days (reference value: 50.1 mm2); assay type: functional; settings: time 4 day
# [35] = tested on: Staphylococcus aureus; assay: In vivo antibacterial activity against methicilin-resistant Staphylococcus aureus ATCC33591 infected in BALB/c mouse skin infection model assessed as reduction in area of injury at 5 mg/kg administered daily for 4 days by H and E staining based analysis; assay type: functional, organism-based; settings: time 4.0 day
# [36] = tested on: Pseudomonas aeruginosa; assay: Antimicrobial activity against Pseudomonas aeruginosa PAO1 measured after 24 hrs by CLSI protocol based microdilution method; assay type: functional
# [37] = tested on: Enterococcus faecalis; assay: Antimicrobial activity against Enterococcus faecalis ATCC29212 measured after 24 hrs by CLSI protocol based microdilution method; assay type: functional
# [38] = tested on: Staphylococcus aureus; assay: Antimicrobial activity against […] Staphylococcus aureus ATCC33591 assessed as reduction in lipid content measured after 4 hrs by microplate reader based analysis; assay type: functional
# [39] = AUC (0 to t) in female Sprague-Dawley rat at 20 mg/kg, po measured upto 24 hrs by LC-MS analysis; assay type: ADME, organism-based; settings: in vivo
# [40] = tested on: Enterococcus faecium; assay: Antimicrobial activity against Enterococcus faecium ATCC19434 measured after 24 hrs by CLSI protocol based microdilution method; assay type: functional
# [41] = Clearance in female Sprague-Dawley rat at 5 mg/kg, iv measured upto 24 hrs by LC-MS analysis; assay type: ADME, organism-based; settings: in vivo
# [42] = Oral bioavailability in female Sprague-Dawley rat at 20 mg/kg measured upto 24 hrs by LC-MS analysis; assay type: ADME, organism-based; settings: in vivo
# [43] = tested on: Staphylococcus aureus; assay: In vivo antibacterial activity against methicilin-resistant Staphylococcus aureus ATCC33591 infected in BALB/c mouse skin infection model assessed as reduction in bacterial load at 5 mg/kg administered daily for 4 days; assay type: functional; settings: time 4 day
# [44] = tested on: Candida albicans; assay: Antimicrobial activity against Candida albicans SC5314 measured after 48 hrs by CLSI protocol based microdilution method; assay type: functional
# [45] = Cmax in female Sprague-Dawley rat at 5 mg/kg, iv measured upto 24 hrs by LC-MS analysis; assay type: ADME, organism-based; settings: in vivo
# [46] = tested on: Staphylococcus aureus; assay: In vivo antibacterial activity against methicilin-resistant Staphylococcus aureus ATCC33591 infected in BALB/c mouse skin infection model assessed as reduction in skin lesions at 10 mg/kg administered daily for 4 days (reference value: 48.3 mm2); assay type: functional; settings: time 4 day
# [47] = biological target: T2, Enoyl-[acyl-carrier-protein] reductase [NADPH] FabI (Staphylococcus aureus) (UniProt Q6GI75); assay: Binding affinity to N-terminal his 6 tagged Staphylococcus aureus Fabi (1 to […] residues) expressed in Escherichia coli BL21 assessed as change in melting temperature at 80 uM incubated for 20 mins in presence of NADPH by differential scanning fluorescence assay
# T2 sequence (whole entry): T1 sequence (Q6GI75 whole entry)
# [48] = tested on: Staphylococcus aureus; assay: In vivo antibacterial activity against methicilin-resistant Staphylococcus aureus ATCC33591 infected in BALB/c mouse skin infection model assessed as normal skin structure at 10 mg/kg administered daily for 4 days by H and E staining based analysis; assay type: functional, organism-based; settings: time 4.0 day
# [49] = biological target: T2, Enoyl-[acyl-carrier-protein] reductase [NADPH] FabI (Staphylococcus aureus); assay: Inhibition of N-terminal his 6 tagged Staphylococcus aureus Fabi (1 to […] residues) expressed in Escherichia coli BL21 at 1 uM incubated for 30 mins in presence of NADPH by fluorescence based microplate reader analysis relative to control
# [50] = tested on: Staphylococcus aureus; assay: In vivo antibacterial activity against methicilin-resistant Staphylococcus aureus ATCC33591 infected in BALB/c mouse skin infection model assessed as log reduction in bacterial count at 10 mg/kg administered daily for 4 days; assay type: functional; settings: time 4 day
# [51] = tested on: Staphylococcus aureus; assay: In vivo antibacterial activity against methicilin-resistant Staphylococcus aureus ATCC33591 infected in BALB/c mouse skin infection model assessed as normal morphology at 10 mg/kg administered daily for 4 days by H and E staining based analysis; assay type: functional, organism-based; settings: time 4.0 day
compound,measurement,setting,value
Cc1c(CN(C)C(=O)/C=C/c2cnc3c(c2)CCC(=O)N3)oc2ccccc12 [AFN-1252],IC50,[1],42.3 nM
same,MIC,[2],0.008 µg/mL
same,AUCt,[3],2713.1 ng·h/mL
same,CLint scaled at 1 µM,[4],50.4 mL/min/kg
same,t1/2,[5],402 min
same,Activity,[6],Active
same,t1/2,[7],432 min
same,Cmax,[8],711 ng/mL
same,MIC,[9],0.016 µg/mL
same,log(activity),[10],5
same,half-life at 1 µM,[11],34.5 min
same,Activity,[12],Active
same,log(activity),[13],7.8
same,MIC,[14],0.016 µg/mL
same,Activity,[15],10.4 mm2
same,MIC,[16],0.25 µg/mL
same,MIC,[17],0.016 µg/mL
same,MIC,[18],0.016 µg/mL
same,Tmax,[19],60 min
same,MIC,[20],0.008 µg/mL
same,Activity,[21],Active
same,half-life at 1 µM,[22],17.1 min
same,MIC,[23],1 µg/mL
same,MIC,[24],> 32 µg/mL
same,Activity,[25],Active
same,CL/F,[26],71.7 mL/min/kg
same,Activity,[27],<2.6 10^-10No_unit
same,Activity,[28],5.9 10^-10No_unit
same,CLint scaled at 1 µM,[29],319 mL/min/kg
same,MIC,[30],0.016 µg/mL
same,Activity,[31],1.6 10^-9No_unit
same,MIC,[32],0.008 µg/mL
same,MIC,[33],> 32 µg/mL
same,Activity,[34],13.7 mm2
same,Activity,[35],Active
same,MIC,[36],> 32 µg/mL
same,MIC,[37],> 32 µg/mL
same,MIC,[38],0.008 µg/mL
same,AUCt,[39],4414.1 ng·h/mL
same,MIC,[40],> 32 µg/mL
same,clearance,[41],30 mL/min/kg
same,bioavailability,[42],40.7%
same,log(activity),[43],-7.1
same,MIC,[44],> 32 µg/mL
same,Cmax,[45],1810 ng/mL
Cc1c(Br)cccc1N1C[C@@H](c2nc3ccccc3n2C)CC1=O,Activity,[46],16.1 mm2
same,ΔTm,[47],14.3 °C
same,IC50,[1],94 nM
same,MIC,[2],0.5 µg/mL
same,MIC,[9],0.5 µg/mL
same,Activity,[48],Active
same,MIC,[14],0.5 µg/mL
same,inhibition,[49],> 85%
same,log(activity),[50],6.8
same,MIC,[20],0.5 µg/mL
same,Activity,[27],<2.6 10^-10No_unit
same,Activity,[28],<2.6 10^-10No_unit
same,MIC,[30],1 µg/mL
same,Activity,[31],3.8 10^-10No_unit
same,Activity,[51],Active
same,MIC,[32],0.25 µg/mL
